The numbers were not newly measured in PMC4228152 (BMC Pulmonary Medicine, 2014), which cites them from elsewhere.

Like-named read-outs stand apart in the source and are kept apart here.

Data set [1] has as its system PDE4.
For data set [2], the system named is allergen induced asthmatic response.
Data set [3] has as its system PDE4A.
Data set [4] concerns PDE4B.
In data set [5] the test system is PDE4D.
The subject of data set [6] is monocytes. More on the design: method as in PMID 11865966. The note with it: subjects after 4 weeks treatment.
For data set [7] the following is noted: administered orally.
Where [8] appears, read: inhaled inhibitor, read-out: IC50.

As usually defined, the IC50 is the concentration that gives 50% inhibition. `CS(=O)(=O)Nc1ccc(C(=O)O[C@@H](Cc2c(Cl)c[n+]([O-])cc2Cl)c2ccc(OC(F)F)c(OCC3CC3)c2)cc1OCC1CC1` [CHF6001]: in data set [1] (setting [8]), the IC50 is 0.026 nM. Moreover, the “fall in LAR” value in data set [2] (inhaled) is listed as 30%.
Consider `COc1cccc(Nc2c(C(N)=O)cnc3c(C)cc(S(=O)(=O)c4cccc(C(=O)N(C)C)c4)cc23)c1` [GSK256066], for which the IC50 in data set [1] (setting [8]) was 0.0032 nM. Also, the “reduction in LAR” value in data set [2] (inhaled) is 34%.
With `O=C(Nc1c(Cl)cncc1Cl)c1ccc(OC(F)F)c(OCC2CC2)c1` [roflumilast], the IC50 is […] in data set [3]; […] in data set [4]; […] in data set [5]; 0.5 nM in data set [1] (average of three isoforms, read-out: IC50 average for PDE4-A, -B and -D). Further, in data set [2] (oral), the “reduction in LAR AUC” value is 43%. For the same compound, in data set [2] (orally administered), the “inhibition of the maximal fall in the EAR” value is given as 14-28%. Moreover, the “inhibition of the maximal fall in the LAR” value in data set [2] (orally administered) is reported as 16-43%. Also, in data set [6], the “inhibition of LPS-induced TNFα release in monocytes ex vivo” value is 1.3 fold. In addition, the “mean Cmax” value in data set [7] is on record as 2,000 pg/ml.
